Laboratory results published in paper PMC3126777, “Selective anticancer activity of a hexapeptide with sequence homology to a non-kinase domain of Cyclin Dependent Kinase 4” (Molecular Cancer, 2011).

Tests used:
[1] = test system: normal diploid human fibroblasts; assay: In-vitro morphological cell viability screen, normal fibroblasts; format: cell-based; settings: dose 200 μM
Method: A broad search for possible biological activity associated with the [sequence] peptide sequence was initially instituted by screening human bladder cancer cell lines for potential in-vitro morphological changes, compared to control cultures of normal diploid human fibroblasts at 4-8 passages from primary culture as controls. […] The peptides were dissolved, over a range of concentrations, in Ham's F12 + 10% FCS and introduced in 100 μL quantities to microwells containing 500 RT112 bladder cancer cells, or normal diploid human fibroblasts, in 200 μL of Ham's F12 + 10% FCS plated 24 hours earlier on 96 well plates.

[2] = test system: G361 Melanoma; assay: Response of cancer cell line to 200 μM THR53 (morphology, clonogenic assay); format: cell-based, human; settings: G361, 200 μM; morphological changes at 5 days, clonogenic assays at 15 days
Method: (§1) The appearances of the disintegrating colonies in Figure 4B were not dissimilar to those of "starbursts" earlier reported in human in vitro cancer cell colonies undergoing spontaneous cell death. Table 5 lists 11 cell lines with complete response to 200 μM THR53. This relatively homogeneous therapeutic response to the same critical dose of THR53 markedly contrasts with the wide range of variability of in-vitro dose response of different cancer cell lines typically seen with conventional chemotherapeutic agents In addition to showing lack of toxicity towards normal human diploid fibroblasts, THR53 and related cyclic amphiphilic PRGPRP-containing peptides were not cytotoxic to normal diploid human keratinocytes growing as primary cultures (Figure 2B) or to MRC5-hTERT immortalised fibroblasts (Figures 4A and 5A).
(§2) All cell lines were from certified sources.

[3] = test system: MGHU-1 Carcinoma Bladder; assay: as above; format: cell-based, human; settings: MGHU-1, 200 μM; morphological changes at 5 days, clonogenic assays at 15 days
Method: as §1, §2

[4] = test system: RT112 human bladder cancer and H460 human non-small lung cancer cell lines; assay: Cell killing by cyclic amphiphilic peptides (viability and clonogenic survival); format: cell-based
Text: Attempts to limit proteolysis and improve cell uptake, by incorporating the hexameric peptide sequence into cyclic peptide cassettes were undertaken, initially without success (Table 3,X-XIII). Linear constructs attaching PRGPRP to a known cell-internalising amphiphilic sequence were also unsuccessful (Table 3,XIV and 3XV). […] Selective toxicity to these cancer cell lines, and not normal fibroblasts, was retained (Table 4).
as §2

[5] = test system: H460 human non-small cell lung cancer cells; assay: Necrosis assay by Trypan Blue exclusion, H460; format: cell-based
Method: (§3) Necrosis Assay Cells were plated in triplicate in 96 well plates at concentrations of 500 cells per well (HT1299, MCF-7) or 1000 cells per well (H460, MRC5-hTERT) in the presence or absence of the relevant compound and assessed by Trypan Blue exclusion At 2,3,4 and 7 days after plating. To assay, cells were trypsinised off, stained with trypan blue in isotonic medium and live and dead cells separately counted visually by haemocytomter. Each data point is the mean of results from triplicate wells (Solid lines - Live cells, Broken lines - Dead Cells; Blue - Control, Red - THR53 200 μM).

[6] = test system: H1299 human non-small cell lung cancer cells; assay: Necrosis assay by Trypan Blue exclusion, H1299; format: cell-based
Method: as §3

[7] = test system: MCF-7 human breast cancer cells; assay: Necrosis assay by Trypan Blue exclusion, MCF-7; format: cell-based
Method: as §3

[8] = test system: normal diploid human keratinocytes; assay: Morphological cytotoxicity in primary keratinocyte cultures; format: cell-based; settings: 200 μM THR53 (Figure 2B)
Method: as §1

[9] = test system: NCI-H460 cells; assay: Mitochondrial function (alamar blue); format: cell-based, human; settings: H460, 100 μM THR53, up to 96 hours, Alamar Blue
Method: Mitochondrial function (alamar blue) NCI-H460 cells were grown in Ham's F12 media supplemented with 10% FCS. Cells were harvested and added to 96-well plates at densities of 250-1000. Compounds were made up from stock solutions and added directly to cells at the concentrations indicated. Cells were grown with compound for the indicated time at 37°C, 5% CO2, in a humidified atmosphere. Alamar Blue 10% (v/v) was then added and incubated for a further 4 h, and fluorescent product detected using the BMG FLUOstar plate reader. The media only background was subtracted and the data analysed as appropriate.

[10] = test system: H460 cells; assay: Autophagy Assay (Cyto-ID Green, flow cytometry); format: cell-based, human; settings: H460, 100 μM, 72 h and 96 h
Method: Autophagy Assay was performed as recommended by the manufacturers' instructions (Enzo ENZ-51031-[…]). Briefly, H460 cells were seeded into 6 well plates at 2.5 × 10^5 and 1 × 10^5 cells/well. Immediately after cell plating, chloroquine or […] were added at the concentrations indicated. Following compound treatment, cells were washed once in PBS and resuspended in x1 Cyto-ID Green autophagy detection reagent and incubated at room temperature for 30 min. Immediately prior to analysis, propidium iodide (PI) solution was added to the cell suspension at a final concentration of 2.5 μg/ml, to assess cell death. Analysis was carried out using FACSCalibur (BD Biosciences). Cyto-ID Green autophagy reagent was measured in the FL-1 channel (530/30 nm bandpass filters with excitation at 488 nm) and PI measured in the FL-3 channel (670 nm longpass filters with excitation at 488 nm).

[11] = test system: MCF7 breast cancer cells; assay: Killing of cycling versus serum-deprived MCF-7 cells; format: cell-based, human
Text: (§4) Cell death, however, was not dependent on cell division in MCF-7, RT112 or H460. […] had no effect on cell cycle phase distribution in H460 cells (Figure 6B) and […] hexapeptide cancer cell killing was unrelated to endogenous levels of Cdk4 or Cyclin D1. […] A. Macroscopic appearances of cycling […]-treated MCF-7 human breast cancer cells in medium + 10% FCS (left hand panels) compared to the same cells held outside the cell cycle in medium + 0.1%FCS (right hand panel) B. […] C. Sequential Western blots of Cdk1 and Cdk4 expression in RT112 human bladder cancer cells at 0 - 10 days after exposure to 5 mM linear, end-capped, […].

[12] = test system: H460 cells; assay: Cell cycle phase distribution (DNA histograms); format: cell-based, human
Text: as §4

[13] = test system: Cdk1 and Cdk4 expression in H460 human non-small cell lung cancer cells; assay: Western blotting of Cdk1 and Cdk4 expression, H460; format: cell-based; settings: H460, 200 μM, 24 hours, Western blot
Text: This co-expression is unaffected by cytocidal doses of cisdiamminedichloroplatinum but can accompany spontaneous cancer cell death. Whether or not Cdk1/Cdk4 co-expression remained constant in cancer cells dying as a result of exposure to PRGPRP was thus examined by Western blotting.
as §2

[14] = Preliminary pharmacokinetic experiments; format: in vivo; settings: maximum tolerated dose, species not given

Substance: Cyc-[FPPRGPRPVKLALKLALK] (head to tail) [THR53, cyclic amphiphilic analogue, Cyc-[…]]
- Cell Viability Normal Diploid Fibroblasts [1]: + + +
- response to THR53 [2]: total cell death
- response to THR53 [3]: total cell death
- improvement in selective cancer cell cytotoxicity ([4]; cyclic amphiphilic cassettes compared with the earlier PRGPRP peptides): fifty- to a hundred-fold improvement
- time at which cell killing reached a maximum ([4]; for the majority of cell lines): ≤ 4 days
- day at which necrotic cells are initially detectable ([5]; H460, 200 μM): 3 days
- necrosis detected by trypan blue uptake ([5]; H460, 200 μM, 2, 3, 4 and 7 days after plating, triplicate wells): induces necrosis
- day at which necrotic cells are initially detectable ([6]; H1299, 200 μM): 3 days
- necrosis detected by trypan blue uptake ([6]; H1299, 200 μM, 2, 3, 4 and 7 days after plating, triplicate wells): induces necrosis
- day at which necrotic cells are initially detectable ([7]; MCF-7, 200 μM): 3 days
- necrosis detected by trypan blue uptake ([7]; MCF-7, 200 μM, 2, 3, 4 and 7 days after plating, triplicate wells): induces necrosis
- cytotoxicity to normal diploid human keratinocytes [8]: not cytotoxic
- mitochondrial oxidation/reduction [9]: without change
- autophagy, Cyto-ID Green mean fluorescent intensity compared with control [10]: no difference
- effect on serum-deprived MCF7 cells ([11]; medium + 0.1%FCS, cells held outside the cell cycle): no effect
- effect on cycling MCF-7 cells ([11]; medium +10% FCS): killed
- effect on cell cycle phase distribution [12]: no effect
- Cdk4 expression [13]: complete disappearance
- plasma levels [14]: low plasma levels which were not persistent
